Data: patent publication US12077503B2, “Substituted cyclic amides and their use as herbicides” (FMC CORPORATION, priority 2015, dated 2024)

Experiments:
Assay type in all cases: in vivo
[1] = system: barnyardgrass (Echinochloa crus-galli); test: Test G Pre-Emergence Protocol; settings: Echinochloa crus-galli, pre-emergence, 312 h, evaluated after 13 days; for pest or weed control at 15.625 g/ha: 15.625 g ai/ha, read-out: Barnyard grass damage rating (100=total damage to plant; 0=no damage to plant); for pest or weed control at 62.5 g/ha: 62.5 g ai/ha, 100=total damage to plant, 0=no damage to plant, read-out: plant damage rating, Barnyardgrass; for pest or weed control at 250 g/ha: 250 g ai/ha, read-out: Barnyardgrass damage rating (100=total damage to plant; 0=no damage to plant)
In short: (§1)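 Visual injury (0–100) at day 13 after a single pre-emergence spray. Rates: 15.625, 62.5, 250 g/ha in acetone–water 50:50 with 0.5% Tween 20. Growth conditions: 24/16° C, 14 h light, 65% humidity.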

corn (Zea mays) [2] = test: Test G Pre-Emergence Protocol; settings: Zea mays, pre-emergence, 312 h, evaluated after 13 days; for plant injury at 15.625 g/ha: 15.625 g ai/ha; for plant injury at 15.625 g/ha / plant injury at 250 g/ha: read-out: Corn damage rating (100=total damage to plant; 0=no damage to plant); for plant injury at 62.5 g/ha: 62.5 g ai/ha, 100=total damage to plant, 0=no damage to plant, read-out: plant damage rating, Corn; for plant injury at 250 g/ha: 250 g ai/ha
In short: as §1

[3] = system: giant foxtail (Setaria faberi); test: Test G Pre-Emergence Protocol; settings: Setaria faberi, pre-emergence, 312 h, evaluated after 13 days; for pest or weed control at 15.625 g/ha: 15.625 g ai/ha; for pest or weed control at 15.625 g/ha / pest or weed control at 250 g/ha: read-out: Foxtail, Giant damage rating (100=total damage to plant; 0=no damage to plant); for pest or weed control at 62.5 g/ha: 62.5 g ai/ha, 100=total damage to plant, 0=no damage to plant, read-out: plant damage rating, Foxtail, Giant; for pest or weed control at 250 g/ha: 250 g ai/ha
In short: as §1

[4] = system: ivy-leaved morning glory (Ipomoea hederacea); test: Test G Pre-Emergence Protocol; settings: Ipomoea, pre-emergence, 312 h, evaluated after 13 days; for pest or weed control at 15.625 g/ha: 15.625 g ai/ha, read-out: Morning-glory, Ivy-leaved damage rating (100=total damage to plant; 0=no damage to plant); for pest or weed control at 62.5 g/ha: 62.5 g ai/ha, 100=total damage to plant, 0=no damage to plant, read-out: plant damage rating, Morningglory, Ivy-leaved; for pest or weed control at 250 g/ha: 250 g ai/ha, read-out: Morningglory, Ivy-leaved damage rating (100=total damage to plant; 0=no damage to plant)
In short: as §1

[5] = system: redroot pigweed (Amaranthus retroflexus); test: Test G Pre-Emergence Protocol; settings: Amaranthus retroflexus, pre-emergence, 312 h, evaluated after 13 days; for pest or weed control at 15.625 g/ha: 15.625 g ai/ha; for pest or weed control at 15.625 g/ha / pest or weed control at 250 g/ha: read-out: Pigweed, Redroot damage rating (100=total damage to plant; 0=no damage to plant); for pest or weed control at 62.5 g/ha: 62.5 g ai/ha, 100=total damage to plant, 0=no damage to plant, read-out: plant damage rating, Pigweed, Redroot; for pest or weed control at 250 g/ha: 250 g ai/ha
In short: as §1

[6] = system: velvetleaf (Abutilon theophrasti); test: Test G Pre-Emergence Protocol; settings: Abutilon theophrasti, pre-emergence, 312 h, evaluated after 13 days; for pest or weed control at 15.625 g/ha: 15.625 g ai/ha; for pest or weed control at 15.625 g/ha / pest or weed control at 250 g/ha: read-out: Velvetleaf damage rating (100=total damage to plant; 0=no damage to plant); for pest or weed control at 62.5 g/ha: 62.5 g ai/ha, 100=total damage to plant, 0=no damage to plant, read-out: plant damage rating, Velvetleaf; for pest or weed control at 250 g/ha: 250 g ai/ha
In short: as §1

[7] = system: barnyardgrass (Echinochloa crus-galli); test: Test G Post-Emergence Protocol; settings: Echinochloa crus-galli, post-emergence, 312 h; for pest or weed control at 15.625 g/ha: 15.625 g ai/ha, evaluated after 13 days (100=total damage to plant; 0=no damage to plant), read-out: Barnyardgrass damage rating; for pest or weed control at 62.5 g/ha: 62.5 g ai/ha, read-out: Barnyardgrass damage rating (100=total damage to plant; 0=no damage to plant); for pest or weed control at 62.5 g/ha / pest or weed control at 250 g/ha: evaluated after 13 days; for pest or weed control at 250 g/ha: 250 g ai/ha, read-out: damage to plant, Barnyardgrass (100=total damage to plant; 0=no damage to plant)
In short: (§2)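 Post-emergence herbicidal damage, scored visually 0–100 at 13 days. Application at 15.625, 62.5 or 250 g/ha onto 8-day-old plants grown under glasshouse control.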

corn (Zea mays) [8] = test: Test G Post-Emergence Protocol; settings: Zea mays, post-emergence, 312 h; for plant injury at 15.625 g/ha: 15.625 g ai/ha, evaluated after 13 days (100=total damage to plant; 0=no damage to plant), read-out: Corn damage rating; for plant injury at 62.5 g/ha: 62.5 g ai/ha, read-out: Corn damage rating (100=total damage to plant; 0=no damage to plant); for plant injury at 62.5 g/ha / plant injury at 250 g/ha: evaluated after 13 days; for plant injury at 250 g/ha: 250 g ai/ha, read-out: damage to plant, Corn (100=total damage to plant; 0=no damage to plant)
In short: as §2

[9] = system: giant foxtail (Setaria faberi); test: Test G Post-Emergence Protocol; settings: Setaria faberi, post-emergence, 312 h; for pest or weed control at 15.625 g/ha: 15.625 g ai/ha, evaluated after 13 days (100=total damage to plant; 0=no damage to plant), read-out: Foxtail, Giant damage rating; for pest or weed control at 62.5 g/ha: 62.5 g ai/ha, read-out: Foxtail, Giant damage rating (100=total damage to plant; 0=no damage to plant); for pest or weed control at 62.5 g/ha / pest or weed control at 250 g/ha: evaluated after 13 days; for pest or weed control at 250 g/ha: 250 g ai/ha, read-out: damage to plant, Foxtail, Giant (100=total damage to plant; 0=no damage to plant)
In short: as §2

[10] = system: ivy-leaved morning glory (Ipomoea hederacea); test: Test G Post-Emergence Protocol; settings: Ipomoea, post-emergence, 312 h; for pest or weed control at 15.625 g/ha: 15.625 g ai/ha, evaluated after 13 days (100=total damage to plant; 0=no damage to plant), read-out: Morningglory, Ivy-leaved damage rating; for pest or weed control at 62.5 g/ha: 62.5 g ai/ha, read-out: Morningglory, Ivy-leaved damage rating (100=total damage to plant; 0=no damage to plant); for pest or weed control at 62.5 g/ha / pest or weed control at 250 g/ha: evaluated after 13 days; for pest or weed control at 250 g/ha: 250 g ai/ha, read-out: damage to plant, Morningglory, Ivy-leaved (100=total damage to plant; 0=no damage to plant)
In short: as §2

[11] = system: redroot pigweed (Amaranthus retroflexus); test: Test G Post-Emergence Protocol; settings: Amaranthus retroflexus, post-emergence, 312 h; for pest or weed control at 15.625 g/ha: 15.625 g ai/ha, evaluated after 13 days (100=total damage to plant; 0=no damage to plant), read-out: Pigweed, Redroot damage rating; for pest or weed control at 62.5 g/ha: 62.5 g ai/ha, read-out: Pigweed, Redroot damage rating (100=total damage to plant; 0=no damage to plant); for pest or weed control at 62.5 g/ha / pest or weed control at 250 g/ha: evaluated after 13 days; for pest or weed control at 250 g/ha: 250 g ai/ha, read-out: damage to plant, Pigweed, Redroot (100=total damage to plant; 0=no damage to plant)
In short: as §2

[12] = system: velvetleaf (Abutilon theophrasti); test: Test G Post-Emergence Protocol; settings: Abutilon theophrasti, post-emergence, 312 h; for pest or weed control at 15.625 g/ha: 15.625 g ai/ha, evaluated after 13 days (100=total damage to plant; 0=no damage to plant), read-out: Velvetleaf damage rating; for pest or weed control at 62.5 g/ha: 62.5 g ai/ha, read-out: Velvetleaf damage rating (100=total damage to plant; 0=no damage to plant); for pest or weed control at 62.5 g/ha / pest or weed control at 250 g/ha: evaluated after 13 days; for pest or weed control at 250 g/ha: 250 g ai/ha, read-out: damage to plant, Velvetleaf (100=total damage to plant; 0=no damage to plant)
In short: as §2

SMILES	pest or weed control at 15.625 g/ha [1]	pest or weed control at 62.5 g/ha [1]	pest or weed control at 250 g/ha [1]	plant injury at 15.625 g/ha (corn (Zea mays) [2])	plant injury at 62.5 g/ha (corn (Zea mays) [2])	plant injury at 250 g/ha (corn (Zea mays) [2])	pest or weed control at 15.625 g/ha [3]	pest or weed control at 62.5 g/ha [3]	pest or weed control at 250 g/ha [3]	pest or weed control at 15.625 g/ha [4]	pest or weed control at 62.5 g/ha [4]	pest or weed control at 250 g/ha [4]	pest or weed control at 15.625 g/ha [5]	pest or weed control at 62.5 g/ha [5]	pest or weed control at 250 g/ha [5]	pest or weed control at 15.625 g/ha [6]	pest or weed control at 62.5 g/ha [6]	pest or weed control at 250 g/ha [6]	pest or weed control at 15.625 g/ha [7]	pest or weed control at 62.5 g/ha [7]	other results
CN1C[C@H](c2ccc(C(F)(F)F)cc2)[C@](C)(C(=O)Nc2cccc(F)c2F)C1=O (racemic) [Compound 1406]	0%	0%	0%	0%	0%	0%	0%	0%	0%	0%	0%	0%	0%	0%	0%	0%	0%	0%	0%	0%	pest or weed control at 250 g/ha [7]: 20%; plant injury at 15.625 g/ha (corn (Zea mays) [8]): 20%; plant injury at 62.5 g/ha (corn (Zea mays) [8]): 0%; plant injury at 250 g/ha (corn (Zea mays) [8]): 10%; pest or weed control at 15.625 g/ha [9]: 0%; pest or weed control at 62.5 g/ha [9]: 0%; pest or weed control at 250 g/ha [9]: 0%; pest or weed control at 15.625 g/ha [10]: 0%; pest or weed control at 62.5 g/ha [10]: 10%; pest or weed control at 250 g/ha [10]: 0%; pest or weed control at 15.625 g/ha [11]: 0%; pest or weed control at 62.5 g/ha [11]: 40%; pest or weed control at 250 g/ha [11]: 20%; pest or weed control at 15.625 g/ha [12]: 0%; pest or weed control at 62.5 g/ha [12]: 20%; pest or weed control at 250 g/ha [12]: 20%
CN1C[C@H](c2cccc(C(C)(C)C#N)c2)[C@@H](C(=O)Nc2ccccc2F)C1=O (racemic) [Compound 1407]	10%	80%	90%	0%	0%	0%	50%	80%	90%	0%	0%	0%	0%	0%	0%	0%	0%	0%	10%	40%	pest or weed control at 250 g/ha [7]: 60%; plant injury at 15.625 g/ha (corn (Zea mays) [8]): 0%; plant injury at 62.5 g/ha (corn (Zea mays) [8]): 10%; plant injury at 250 g/ha (corn (Zea mays) [8]): 20%; pest or weed control at 15.625 g/ha [9]: 0%; pest or weed control at 62.5 g/ha [9]: 70%; pest or weed control at 250 g/ha [9]: 70%; pest or weed control at 15.625 g/ha [10]: 0%; pest or weed control at 62.5 g/ha [10]: 20%; pest or weed control at 250 g/ha [10]: 30%; pest or weed control at 15.625 g/ha [11]: 20%; pest or weed control at 62.5 g/ha [11]: 10%; pest or weed control at 250 g/ha [11]: 30%; pest or weed control at 15.625 g/ha [12]: 10%; pest or weed control at 62.5 g/ha [12]: 20%; pest or weed control at 250 g/ha [12]: 20%
